# Test system: A2780 cells
# Experiment: In-vitro cell proliferation assay (SRB, 72 hours)
# Format: cell-based
# Conditions: A2780 cells, 72 hours, SRB; read-out: Cell Proliferation (IC50)
row,IC50 [µM],Structure (SMILES)
1,0.0426,"CC1(C)CC1C(=O)N1CCC2(CC1)CC2CNC(=O)c1cc2cnccc2[nH]1 (stereo not shown) [Example 348, N-[[6-(2,2-dimethylcyclopropanecarbonyl)-6-azaspiro[2.5]octan-2-yl]methyl]-1H-pyrrolo[3,2-c]pyridine-2-carboxamide]"
2,0.00421,"Cc1nn(C)c(C)c1C(=O)N1CCC2(CC1)CC2CNC(=O)c1cc2ccncc2o1 (single isomer, unassigned) [Example 301, N-[[6-(1,3,5-trimethylpyrazole-4-carbonyl)-6-azaspiro[2.5]octan-2-yl]methyl]furo[2,3-c]pyridine-2-carboxamide]"

# Same assay, conditions: Homo sapiens, A2780, 72 h, A2780 cells, 72 hours, SRB; read-out: Cell Proliferation (IC50)
row,IC50 [µM],Structure (SMILES)
1,0.00676,"CCn1nc(C)c(C(=O)N2CCC3(CC2)CC3CNC(=O)c2cc3ccncc3o2)c1C (stereo not shown) [Example 314, N-[[6-(1-ethyl-3,5-dimethyl-pyrazole-4-carbonyl)-6-azaspiro[2.5]octan-2-yl]methyl]furo[2,3-c]pyridine-2-carboxamide]"
2,0.00977,"CN1CCN(Cc2cccc(C(=O)N3CCC4(CC3)CC4CNC(=O)c3cc4ccncc4o3)c2)CC1 (stereo not shown) [Example 88, N-[[6-[3-[(4-methylpiperazin-1-yl)methyl]benzoyl]-6-azaspiro[2.5]octan-2-yl]methyl]furo[2,3-c]pyridine-2-carboxamide]"
3,0.0243,"O=C(NCC1CC12CCN(C(=O)CC1CCN(CC(F)(F)F)CC1)CC2)c1cc2cnccc2[nH]1 (stereo not shown) [Example 40, N-[[6-[2-[1-(2,2,2-trifluoroethyl)-4-piperidyl]acetyl]-6-azaspiro[2.5]octan-2-yl]methyl]-1H-pyrrolo[3,2-c]pyridine-2-carboxamide]"
4,0.0142,"O=C(NCC1CC12CCN(C(=O)c1ccc(N3CCS(=O)(=O)CC3)cc1)CC2)c1cc2ccncc2o1 (stereo not shown) [Example 85, N-[[6-[4-(1,1-dioxo-1,4-thiazinan-4-yl)benzoyl]-6-azaspiro[2.5]octan-2-yl)methyl]furo[2,3-c]pyridine-2-carboxamide]"
5,0.0114,"CN1CCN(c2ccc(C(=O)N3CCC4(CC3)CC4CNC(=O)c3cc4cnccc4[nH]3)cc2)CC1 (stereo not shown) [Example 363, N-[[6-[4-(4-methylpiperazin-1-yl)benzoyl]-6-azaspiro[2.5]octan-2-yl]methyl]-1H-pyrrolo[3,2-c]pyridine-2-carboxamide]"
6,0.0551,"Cc1n[nH]c(C)c1C(=O)N1CCC2(CC1)CC2CNC(=O)c1cc2ccncc2o1 (stereo not shown) [Example 329, N-[[6-(3,5-dimethyl-1H-pyrazole-4-carbonyl)-6-azaspiro[2.5]octan-2-yl]methyl]furo[2,3-c]pyridine-2-carboxamide]"
7,0.0453,"CC(C)N1CCC(CC(=O)N2CCC3(CC2)CC3CNC(=O)N2Cc3ccncc3C2)CC1 (stereo not shown) [Example 188, N-[[6-[2-(1-isopropyl-4-piperidyl)acetyl]-6-azaspiro[2.5]octan-2-yl]methyl]-1,3-dihydropyrrolo[3,4-c]pyridine-2-carboxamide]"
8,2,"O=C(NCC1CC12CCN(C(=O)c1cn[nH]c1)CC2)c1cc2ccncc2o1 (stereo not shown) [Example 141, N-[[6-(1H-pyrazole-4-carbonyl)-6-azaspiro[2.5]octan-2-yl]methyl]furo[2,3-c]pyridine-2-carboxamide]"
9,0.0302,"CC1(C)CC1C(=O)N1CCC2(CC1)CC2CNC(=O)c1cc2ccncc2o1 (stereo not shown) [Example 371, N-[[6-(2,2-dimethylcyclopropanecarbonyl)-6-azaspiro[2.5]octan-2-yl]methyl]furo[2,3-c]pyridine-2-carboxamide]"
10,0.535,"CC(C)(O)COCC(=O)N1CCC2(CC1)CC2CNC(=O)c1cc2cnccc2[nH]1 (stereo not shown) [Example 387, N-[[6-[2-(2-hydroxy-2-methyl-propoxy)acetyl]-6-azaspiro[2.5]octan-2-yl]methyl]-1H-pyrrolo[3,2-c]pyridine-2-carboxamide]"
11,0.00331,"Cc1nn(C)c(C)c1C(=O)N1CCC2(CC1)CC2CNC(=O)c1cc2ccncc2o1 (stereo not shown) [Example 181, N-[[6-(1,3,5-trimethylpyrazole-4-carbonyl)-6-azaspiro[2.5]octan-2-yl]methyl]furo[2,3-c]pyridine-2-carboxamide]"
12,0.791,"O=C(NCC1CC12CCN(C(=O)C1CCOCC1)CC2)c1cc2cnccc2[nH]1 (stereo not shown) [Example 10, N-[[8-(tetrahydropyran-4-carbonyl)-8-azaspiro[2.5]octan-2-yl]methyl]-1H-pyrrolo[3,2-c]pyridine-2-carboxamidc]"
13,2,"O=C(NCC1CC12CCN(C(=O)c1cnn3ccccc13)CC2)c1cc2ccncc2o1 (stereo not shown) [Example 316, N-[[6-(pyrazolo[1,5-a]pyridine-3-carbonyl)-6-azaspiro[2.5]octan-2-yl]methyl]furo[2,3-c]pyridine-2-carboxamide]"
14,0.265,"CC1(CC(=O)N2CCC3(CC2)CC3CNC(=O)c2cc3cnccc3[nH]2)COC1 (stereo not shown) [Example 150, N-([6-[2-(3-methyloxetan-3-yl)acetyl]-6-azaspiro[2.5]octan-1-yl]methyl)-1H-pyrrolo[3,2-c]pyridine-2-carboxamide]"
15,1.08,"O=C(NCC1CC12CCN(C(=O)c1ccc(Cn3cnnn3)cc1)CC2)c1cc2ccncc2o1 (stereo not shown) [Example 83, N-[[6-[4-(tetrazol-1-ylmethyl)benzoyl]-6-azaspiro[2.5]octan-2-yl]methyl]furo[2,3-c]pyridine-2-carboxamide]"
16,2,"O=C(NCC1CC12CCN(C(=O)c1cccnn1)CC2)c1cc2ccncc2o1 (stereo not shown) [Example 110, N-[[6-(pyridazine-3-carbonyl)-6-azaspiro[2.5]octan-2-yl]methyl]furo[2,3-c]pyridine-2-carboxamide]"

row,IC50 [µM],Structure (SMILES)
1,2,"CC(C)(C)OC(=O)N1CCC2(CC1)CC2CNC(=O)N1Cc2cn[nH]c2C1 (stereo not shown) [Example 274, tert-Butyl 2-[(4,6-dihydro-1H-pyrrolo[3,4-c]pyrazole-5-carbonylamino)methyl]-6-azaspiro[2.5]octane-6-carboxylate]"
2,0.139,"O=C(NCC1CC12CCN(C(=O)c1ccc3cccnc3n1)CC2)c1cc2ccncc2o1 (stereo not shown) [Example 271, N-[[6-(1,8-naphthyridine-2-carbonyl)-6-azaspiro[2.5]octan-2-yl]methyl]furo[2,3-c]pyridine-2-carboxamide]"
3,0.000722,"O=C(NCC1CC12CCN(C(=O)c1cnccc1C(F)(F)F)CC2)N1Cc2ccncc2C1 (stereo not shown) [Example 398, N-[[6-[4-(trifluoromethyl]pyridine-3-carbonyl]-6-azaspiro[2.5]octan-2-yl]methyl]-1,3-dihydropyrrolo[3,4-c]pyridine-2-carboxamide]"
4,0.0117,"CCn1nc(C)c(C(=O)N2CCC3(CC2)CC3CNC(=O)c2cc3c(o2)C=NCC3)c1C (stereo not shown) [Example 222, N-[[6-(1-isopropyl-3,5-dimethyl-pyrazole-4-carbonyl)-6-azaspiro[2.5]octan-2-y]methyl]furo[2,3-c]pyridine-2-carboxamide]"
5,0.0903,"O=C(NCC1CC12CCN(C(=O)c1n[nH]c3ccccc13)CC2)c1cc2ccncc2o1 (stereo not shown) [Example 302, N-[[6-(1H-indazole-3-carbonyl)-6-azaspiro[2.5]octan-2-yl]methyl]furo(2,3-c]pyridine-2-carboxamide]"
6,2,"O=C(NCC1CC12CCN(C(=O)c1ccccc1)CC2)c1cc2ccncc2o1 (stereo not shown) [Example 411, N-((6-benzoyl-6-azaspiro[2.5]octan-2-yl)methyl]furo[2,3-c]pyridine-2-carboxamide]"
7,0.0809,"CC(C(=O)N1CCC2(CC1)CC2CNC(=O)c1cc2ccncc2o1)N1CCOCC1 (stereo not shown) [Example 75, N-[[6-(2-morpholinopropanoyl)-6-azaspiro[2.5]octan-2-yl]methyl]furo[2,3-c]pyridine-2-carboxamide]"
8,2,"Cn1nccc1C(=O)N1CCC2(CC1)CC2CNC(=O)c1cc2ccncc2o1 (stereo not shown) [Example 107, N-[[6-(2-methylpyrazole-3-carbonyl)-6-azaspiro[2.5]octan-2-yl]methyl]furo[2,3-c]pyridine-2-carboxamide]"
9,2,"CN1CC(C(=O)N2CCC3(CC2)CC3CNC(=O)c2cc3ccncc3o2)CC1=O (stereo not shown) [Example 56, N-[[6-(1-methyl-5-oxo-pyrrolidine-3-carbonyl)-6-azaspiro[2.5]octan-2-yl]methyl]furo[2,3-c]pyridine-2-carboxamide]"
10,0.0177,"CN1CCC(C)(CC(=O)N2CCC3(CC2)CC3CNC(=O)c2cc3ccncc3o2)CC1 (stereo not shown) [Example 275, N-([6-[2-(1,4-dimethylpiperidin-4-yl)acetyl]-6-azaspiro[2.5]octan-1-yl]methyl)furo[2,3-c]pyridine-2-carboxamide]"
11,2,"CC(C)NC(=O)N1CCC2(CC1)CC2CNC(=O)c1cc2ccncc2o1 (stereo not shown) [Example 183, N-[[6-(isopropylcarbamoyl)-6-azaspiro[2.5]octan-2-yl]methyl]furo[2,3-c]pyridine-2-carboxamide]"
12,1.07,"Cc1nonc1C(=O)N1CCC2(CC1)CC2CNC(=O)c1cc2ccncc2o1 (stereo not shown) [Example 118, N-[[6-(4-methyl-1,2,5-oxadiazole-3-carbonyl)-6-azaspiro[2.5]octan-2-yl]methyl]furo[2,3-c]pyridine-2-carboxamide]"
13,2,"CC(C)N1CCC(n2cc(C(=O)N3CCC4(CC3)CC4CNC(=O)c3cc4ccncc4o3)cn2)C1 (stereo not shown) [Example 303, N-[[6-(1-(1-isopropylpyrrolidin-3-yl)pyrazole-4-carbonyl]-6-azaspiro[2.5]octan-2-yl]methyl]furo[2,3-c]pyridine-2-carboxamide]"
14,0.00192,"Cc1nn(-c2ccc(F)cc2)c(C)c1C(=O)N1CCC2(CC1)CC2CNC(=O)c1cc2ccncc2o1 (stereo not shown) [Example 223, N-[[6-[1-(4-fluorophenyl)-3,5-dimethyl-pyrazole-4-carbonyl]-6-azaspiro[2.5]octan-2-yl]methyl]furo[2,3-c]pyridine-2-carboxamide]"
15,0.0184,"O=C(CCN1CCOCC1)N1CCC2(CC1)CC2CNC(=O)N1Cc2ccncc2C1 (stereo not shown) [Example 229, N-[[6-(3-morpholinopropanoyl)-6-azaspiro[2.5]octan-2-yl)methyl]-1,3-dihydropyrrolo[3,4-c]pyridine-2-carboxamide]"
16,0.0258,"CS(=O)(=O)N1CCCC(C(=O)N2CCC3(CC2)CC3CNC(=O)c2cc3ccncc3o2)C1 (stereo not shown) [Example 73, N-[[6-(1-methylsulfonylpiperidine-3-carbonyl)-6-azaspiro[2.5]octan-2-yl]methyl]furo[2,3-c]pyridine-2-carboxamide]"
